From patent publication US20250099033A1, “HIGH THROUGHPUT SCREENING METHOD FOR THE IDENTIFICATION OF PS[…]” (FRIEDRICH MIESCHER INSTITUTE FOR BIOMEDICAL RESEARCH, priority 2022, published 2025)
Entries after “also recorded” stand apart in the source; their conditions may differ.

Test system: Tlx3 positive layer 5 IT neurons
Test: Widefield calcium imaging of dorsal cortex in Tlx3-Cre x Ai148 mice (GCaMP6 in layer 5 IT neurons), before and after drug injection
Format: in vivo
Conditions: for Pearson's correlation of activity between cortical regions (all region pairs): single injection, after vs naïve; for long-range activity correlations (drug induced difference, normalized to naïve): region pairs above 0.9 of the bregma-lambda distance
Excerpt: All animal procedures were approved by and carried out in accordance with guidelines of the Veterinary Department of the Canton Basel-Stadt, Switzerland. The mice used in this study were kept on a C57BL/6 background and were of the following genotype: 6 C57/Bl6 (Charles River Laboratories), 4 Emx1-Cre mice (Gorski et al., 2002), 4 Cux2-CreERT2 (Franco et al., 2012), 7 Scnn1a-Cre (Madisen et al., 2010), 15 Tlx3-Cre(PL56) (Gerfen et al., 2013), 3 Ntsr1-Cre (Gong et al., 2007), 2 PV-Cre (Hippenmeyer et al., 2005), 6 VIP-Cre (Taniguchi et al., 2011), 5 Sst-Cre (Taniguchi et al., 2011) were used for widefield calcium imaging. Ai148 ((Daigle et al., 2018), Jackson Laboratories, stock #030328) mice were used as breeders to drive GCaMP6f in Cre positive neurons. 7 C57BL/6 were used for experiments controlling for hemodynamic responses. To induce expression of Cre in the Cux2-CreERT2 line, mice were kept for at least 1 week on Tamoxifen containing food (Envigo, 400 mg Tamoxifen per kg of food) as their only food source. Mice were group housed in a vivarium (light/dark cycle: 12/12 hours). Experimental mice used were of both sexes.
For all surgical procedures, mice were anesthetized using a mixture of Fentanyl (0.05 mg/kg; Actavis), Midazolam (5.0 mg/kg; Dormicum, Roche) and Medetomidine (0.5 mg/kg; Domitor, Orion). In a subset of mice (6 C57/Bl6, 4 Emx1-Cre, 4 Sst-Cre mice) we injected an AAV coated with the PHP.eb capsid (Chan et al., 2017) retroorbitally ([…] each eye of at least 10^13 GC/ml) to drive expression pan-neuronally or cell type specificly of GCaMP6 under either the Ef1α or hSyn promoter. For hemodynamic response control experiments, the inventors used an AAV PHP.eb Ef1α-GFP to pan-neuronally transfect GFP. To improve optical access to the cortex, they implanted crystal skull cranial windows (Kim et al., 2016). Prior to removing the skull plate overlying dorsal cortex, they zeroed bregma with a digital readout attached to the stereotax for later use as a landmark. Superglue (Pattex) was used to close the craniotomy. […] A custom-machined titanium head bar was attached to the skull using dental cement (Paladur, Heraeus). An epifluorescence overview image was taken to mark reference points on the dorsal cortical surface. Anesthesia was antagonized by an intraperitoneal injection of a mixture of Flumazenil (0.5 mg/kg; Anexate, Roche) and Atipamezole (2.5 mg/kg; Antisedan, Orion Pharma), analgesia was achieved by injecting Buprenorphine (0.1 mg/kg; Reckitt Benckiser Healthcare (UK) Ltd.) and Metacam (5 mg/kg; Boehringer Ingelheim), and mice were subsequently returned to their home cage. Imaging commenced not before 1 week after headbar implantation and not before at least 3 weeks had passed in the cases in which AAVs had been used to transfect neurons. Clozapine (Sigma), Aripiprazole (Otsuka Pharmaceutical), Haloperidol (Janssen) and Amphetamine (Hänseler) were intraperitoneally injected at […] body weight, respectively.
For all experiments we used a virtual reality setup as previously described (Leinweber et al., 2014). Mice were head-fixed and free to run on a spherical, air supported Styrofoam ball. Rotation of the ball was coupled to movement in a virtual reality environment. A virtual corridor was projected (Samsung SP-F10M) onto a toroidal screen positioned in front of the mice covering approximately 240 degrees horizontally and 100 degrees vertically of the field of view. […]

SMILES | Pearson's correlation of activity between cortical regions (all region pairs) | long-range activity correlations (drug induced difference, normalized to naïve) | short-range activity correlations (drug induced difference, normalized to naïve) (region pairs below 0.9 of the bregma-lambda distance)
CC(N)Cc1ccccc1 (stereo not drawn) [Amphetamine] | did not affect activity correlations; also recorded: absent |  | 
O=C1CCc2ccc(OCCCCN3CCN(c4cccc(Cl)c4Cl)CC3)cc2N1 [Aripiprazole] | mimicked the decorrelation of dorsal cortex activity observed with Clozapine; also recorded: decorrelation of the activity patterns of Tlx3 positive layer 5 IT neurons was preserved | significantly reduced | significantly reduced
O=C(CCCN1CCC(O)(c2ccc(Cl)cc2)CC1)c1ccc(F)cc1 [Haloperidol] | mimicked the decorrelation of dorsal cortex activity observed with Clozapine; also recorded: decorrelation of the activity patterns of Tlx3 positive layer 5 IT neurons was preserved | reduced long-range activity correlations | 
